Results published in patent US20220053762A1, “HERBICIDAL COMPOSITIONS” (Bayer Aktiengesellschaft, priority 2018, published 2022).

Tested on: harmful plant species
Experiment: Specific trial examples: binary compositions applied by the post-emergence method, synergistic effect according to Colby (Tables 3.1-3.2)
Format: in vivo
Method: When the observed efficacies already exceed the formal sum total of the values of the tests with individual applications, they also exceed the expected value according to Colby, which is calculated using the formula below and is likewise regarded as an indication of synergism (cf. S. R. Colby; in Weeds 15 (1967) p. 20 to 22):
Seeds or rhizome pieces of mono- and dicotyledonous weeds are placed in sandy loam in pots, covered with soil and grown in a greenhouse under good growth conditions (temperature, air humidity, water supply). Three weeks after sowing, the test plants are treated at the three-leaf stage with the compositions according to the invention. The compositions according to the invention formulated as spray powders or as emulsion concentrates are sprayed onto the green plant parts in various dosages with an application rate of 300 to 800 l/ha of water (equivalent).
The sum total of the effects of the individual applications is reported under E^A; Expected values according to Colby are each reported under E^C.
The rating period is reported in days after application (DAT).

C=C[C@]1(C(=O)N[C@H]2CO[C@@H](C(=O)NOC)C2)CC(c2cc(C)cc(F)c2)=NO1 (relative stereo) [Compound A3, (5S)-3-(3-fluoro-5-methylphenyl)-N-[rel-(3R,5R)-5-(methoxycarbamoyl)tetrahydrofuran-3-yl]-5-vinyl-4H-isoxazole-5-carboxamide]
Herbicidal action 28 DAT against Amaranthus palmeri (res.) (15 g a.i./ha): 10%
Herbicidal action 28 DAT against Amaranthus palmeri (res.) (45 g a.i./ha): 20%
Herbicidal action 28 DAT against Kochia scoparia (45 g a.i./ha): 20%
Herbicidal action against Abutilon theophrasti (Z61 28 DAT, g a.i./ha: r459 30, r460 15): 10%
Herbicidal action against Amaranthus palmeri (res.) (Z61 28 DAT, g a.i./ha: r467 90, r468 30, r469 15, r470 5): 10%
Herbicidal action against Brachiaria platyphylla (Z61 28 DAT, g a.i./ha: r479 30, r480 1.7): 10%
Herbicidal action against Eleusine indica (Z61 28 DAT, g a.i./ha: r487 270, r488 5): 70%
Herbicidal action 28 DAT [%] against Pharbitis purpurea (post-emergence, single active compound, g a.i./ha: r396 50, r398 5): 70%

O=C(O)CNCP(=O)(O)O [(B7.5) Glyphosate]
Herbicidal action 28 DAT against Digitaria sanguinalis (15 g a.i./ha): 10%
Herbicidal action 14 DAT against Alopecurus myosuroides (50 g a.i./ha): 30%
Herbicidal action 14 DAT against Centaurea cyanus (50 g a.i./ha): 50%
Herbicidal action 14 DAT against Lamium purpureum L. (50 g a.i./ha): 50%
Herbicidal action 14 DAT against Lolium rigidum (50 g a.i./ha): 10%
Herbicidal action 14 DAT against Lolium rigidum (resistant biotype) (50 g a.i./ha): 10%
Herbicidal action 14 DAT against Matricaria inodora (50 g a.i./ha): 40%
Herbicidal action 14 DAT against Poa annua L. (50 g a.i./ha): 20%
Herbicidal action 14 DAT against Viola tricolor (50 g a.i./ha): 50%
Herbicidal action 28 DAT against Alopecurus myosuroides (50 g a.i./ha): 20%
Herbicidal action 28 DAT against Alopecurus myosuroides (sensitive biotype) (50 g a.i./ha): 0%
Herbicidal action 28 DAT against Amaranthus palmeri (res.) (50 g a.i./ha): 10%
Herbicidal action 28 DAT against Brachiaria platyphylla (50 g a.i./ha): 80%
Herbicidal action 28 DAT against Bromus sterilis (50 g a.i./ha): 0%
Herbicidal action 28 DAT against Centaurea cyanus (50 g a.i./ha): 30%
Herbicidal action 28 DAT against Digitaria sanguinalis (50 g a.i./ha): 65%
Herbicidal action 28 DAT against Echinochloa crus-galli (50 g a.i./ha): 20%
Herbicidal action 28 DAT against Eleusine indica (50 g a.i./ha): 40%
Herbicidal action 28 DAT against Euphorbia heterophylla (50 g a.i./ha): 10%
Herbicidal action 28 DAT against Galium aparine (50 g a.i./ha): 0%
Herbicidal action 28 DAT against Hordeum murinum (50 g a.i./ha): 10%
Herbicidal action 28 DAT against Ipomoea purpurea (50 g a.i./ha): 15%
Herbicidal action 28 DAT against Kochia scoparia (50 g a.i./ha): 20%
Herbicidal action 28 DAT against Lamium purpureum L. (50 g a.i./ha): 30%
Herbicidal action 28 DAT against Matricaria inodora (50 g a.i./ha): 20%
Herbicidal action 28 DAT against Pharbitis purpurea (50 g a.i./ha): 40%
Herbicidal action 28 DAT against Polygonum convulvulus (50 g a.i./ha): 0%
Herbicidal action 28 DAT against Raphanus raphanistrum (50 g a.i./ha): 0%
Herbicidal action 28 DAT against Sorghum halepense (50 g a.i./ha): 30%
Herbicidal action 14 DAT against Alopecurus myosuroides (150 g a.i./ha): 60%
Herbicidal action 14 DAT against Bromus sterilis (150 g a.i./ha): 50%
Herbicidal action 14 DAT against Lamium purpureum L. (150 g a.i./ha): 60%
Herbicidal action 14 DAT against Lolium rigidum (resistant biotype) (150 g a.i./ha): 30%
Herbicidal action 14 DAT against Matricaria inodora (150 g a.i./ha): 88%
Herbicidal action 28 DAT against Alopecurus myosuroides (150 g a.i./ha): 30%
Herbicidal action 28 DAT against Alopecurus myosuroides (resistant biotype) (150 g a.i./ha): 0%
Herbicidal action 28 DAT against Alopecurus myosuroides (sensitive biotype) (150 g a.i./ha): 20%
Herbicidal action 28 DAT against Amaranthus palmeri (res.) (150 g a.i./ha): 20%
Herbicidal action 28 DAT against Avena fatua (150 g a.i./ha): 20%
Herbicidal action 28 DAT against Bromus sterilis (150 g a.i./ha): 20%
Herbicidal action 28 DAT against Centaurea cyanus (150 g a.i./ha): 70%
Herbicidal action 28 DAT against Eleusine indica (150 g a.i./ha): 80%
Herbicidal action 28 DAT against Euphorbia heterophylla (150 g a.i./ha): 35%
Herbicidal action 28 DAT against Ipomoea purpurea (150 g a.i./ha): 50%
Herbicidal action 28 DAT against Lamium purpureum (150 g a.i./ha): 60%
Herbicidal action 28 DAT against Lamium purpureum L. (150 g a.i./ha): 50%
Herbicidal action 28 DAT against Lolium rigidum (sensitive biotype) (150 g a.i./ha): 0%
Herbicidal action 28 DAT against Matricaria inodora (150 g a.i./ha): 75%
Herbicidal action 28 DAT against Polygonum convolvulus (150 g a.i./ha): 0%
Herbicidal action 28 DAT against Polygonum convulvulus (150 g a.i./ha): 10%
Herbicidal action 28 DAT against Veronica hederifolia (150 g a.i./ha): 85%
Herbicidal action 28 DAT against Viola tricolor (150 g a.i./ha): 20%
Herbicidal action 14 DAT against Lolium rigidum (resistant biotype) (450 g a.i./ha): 40%
Herbicidal action 14 DAT against Viola tricolor (450 g a.i./ha): 60%
Herbicidal action 28 DAT against Amaranthus palmeri (res.) (450 g a.i./ha): 35%
Herbicidal action 28 DAT against Bromus sterilis (450 g a.i./ha): 60%
Herbicidal action 28 DAT against Euphorbia heterophylla (450 g a.i./ha): 70%
Herbicidal action 28 DAT against Galium aparine (450 g a.i./ha): 50%
Herbicidal action 28 DAT against Ipomoea purpurea (450 g a.i./ha): 65%
Herbicidal action 28 DAT against Lamium purpureum (450 g a.i./ha): 80%
Herbicidal action 28 DAT against Lamium purpureum L. (450 g a.i./ha): 80%
Herbicidal action 28 DAT against Lolium rigidum (450 g a.i./ha): 40%
Herbicidal action 28 DAT against Lolium rigidum (sensitive biotype) (450 g a.i./ha): 50%
Herbicidal action 28 DAT against Matricaria inodora (450 g a.i./ha): 80%
Herbicidal action 28 DAT against Phalaris minor (450 g a.i./ha): 60%
Herbicidal action 28 DAT against Polygonum convolvulus (450 g a.i./ha): 0%
Herbicidal action 28 DAT against Polygonum convulvulus (450 g a.i./ha): 40%
Herbicidal action 28 DAT against Raphanus raphanistrum (450 g a.i./ha): 30%
Herbicidal action 28 DAT against Stellaria media (450 g a.i./ha): 85%
Herbicidal action 28 DAT against Veronica hederifolia (450 g a.i./ha): 85%
Herbicidal action 28 DAT [%] against Digitaria sanguinalis (post-emergence, single active compound (Glyphosate series), g a.i./ha: r765 50, r767 15): 45%
Herbicidal action 28 DAT [%] against Sorghum halepense (post-emergence, single active compound (Glyphosate series), g a.i./ha: r775 50, r777 15, r778 1.67): 30%
Herbicidal action 28 DAT [%] against Setaria viridis (post-emergence, single active compound (Glyphosate series), g a.i./ha: r786 450, r788 1.67): 95%
Herbicidal action 28 DAT [%] against Abutilon theophrasti (post-emergence, single active compound (Glyphosate series), g a.i./ha: r796 450, r798 5): 85%

C=C[C@]1(C(=O)N[C@@H]2C=C(C(=O)NS(C)(=O)=O)OC2)CC(c2cc(F)cc(F)c2)=NO1 [Compound A4, (5S)-3-(3,5-difluorophenyl)-N-[(3R)-5-(methylsulfonylcarbamoyl)-2,3-dihydrofuran-3-yl]-5-vinyl-4H-isoxazole-5-carboxamide]
Herbicidal action 14 DAT against Alopecurus myosuroides (1 g a.i./ha): 10%
Herbicidal action 14 DAT against Bromus sterilis (1 g a.i./ha): 20%
Herbicidal action 14 DAT against Lolium rigidum (resistant biotype) (1 g a.i./ha): 10%
Herbicidal action 14 DAT against Matricaria inodora (1 g a.i./ha): 40%
Herbicidal action 14 DAT against Poa annua L. (1 g a.i./ha): 20%
Herbicidal action 14 DAT against Viola tricolor (1 g a.i./ha): 30%
Herbicidal action 28 DAT against Alopecurus myosuroides (1 g a.i./ha): 0%
Herbicidal action 28 DAT against Bromus sterilis (1 g a.i./ha): 10%
Herbicidal action 28 DAT against Lamium purpureum L. (1 g a.i./ha): 20%
Herbicidal action 28 DAT against Matricaria inodora (1 g a.i./ha): 10%
Herbicidal action 28 DAT against Viola tricolor (1 g a.i./ha): 0%
Herbicidal action 14 DAT against Centaurea cyanus (4 g a.i./ha): 30%
Herbicidal action 14 DAT against Lamium purpureum L. (4 g a.i./ha): 30%
Herbicidal action 14 DAT against Lolium rigidum (resistant biotype) (4 g a.i./ha): 10%
Herbicidal action 14 DAT against Matricaria inodora (4 g a.i./ha): 30%
Herbicidal action 14 DAT against Viola tricolor (4 g a.i./ha): 30%
Herbicidal action 28 DAT against Bromus sterilis (4 g a.i./ha): 30%
Herbicidal action 28 DAT against Lolium rigidum (4 g a.i./ha): 10%
Herbicidal action 28 DAT against Lolium rigidum (resistant biotype) (4 g a.i./ha): 0%
Herbicidal action 28 DAT against Matricaria inodora (4 g a.i./ha): 10%
Herbicidal action 28 DAT against Phalaris minor (4 g a.i./ha): 10%
Herbicidal action 28 DAT against Viola tricolor (4 g a.i./ha): 0%
Herbicidal action 14 DAT against Alopecurus myosuroides (16 g a.i./ha): 30%
Herbicidal action 14 DAT against Centaurea cyanus (16 g a.i./ha): 40%
Herbicidal action 14 DAT against Poa annua L. (16 g a.i./ha): 40%
Herbicidal action 28 DAT against Galium aparine (16 g a.i./ha): 20%
Herbicidal action against Galium aparine ((Z90) 28 DAT, g a.i./ha: r575 16, r576 270, r577 90, r578 30): 20%
Herbicidal action against Lamium purpureum L. ((Z90) 28 DAT, g a.i./ha: r586 16, r587 30): 30%
Herbicidal action against Lolium rigidum ((Z90) 28 DAT, g a.i./ha: r594 16, r595 30): 10%
Herbicidal action against Matricaria inodora ((Z90) 28 DAT, g a.i./ha: r602 4, r603 90): 10%
Herbicidal action against Viola tricolor ((Z90) 28 DAT, g a.i./ha: r624 4, r625 270): 0%
Herbicidal action in [%] 28 DAT against Galium aparine (post-emergence, single active compound (A4 series), g a.i./ha: r491 16, r492 50): 20%
Herbicidal action in [%] 14 DAT against Lamium purpureum L. (post-emergence, single active compound (A4 series), g a.i./ha: r501 4, r502 1, r503 450): 30%
Herbicidal action in [%] 28 DAT against Lamium purpureum L. (post-emergence, single active compound (A4 series), g a.i./ha: r512 4, r513 1, r514 450): 20%
Herbicidal action in [%] 28 DAT against Lolium rigidum (resistant bio type) (post-emergence, single active compound (A4 series), g a.i./ha: r523 1, r524 450): 0%
Herbicidal action in [%] 14 DAT against Poa annua L. (post-emergence, single active compound (A4 series), g a.i./ha: r533 16, r534 450): 40%
